Measurements from publication PMC8326471, “Synthesis and biological evaluation of new pyrazolebenzene-sulphonamides as potential anticancer agents and hCA I and II inhibitors” (Turkish Journal of Chemistry, 2021).

Legend:
hCA I = hCA I (Homo sapiens, UniProt P00915); assay: Carbonic anhydrase enzyme assay (esterase activity), hCA I; assay type: biochemical
From the text: (§1) Human CA isoforms (hCAI and hCAII) were purified by the sepharose - 4B – L - tyrosine sulfanilamide affinity segregation method as reported. […] Inhibitory effects of the compounds were investigated by measuring the esterase activity according to Verpoorte et al. as described in previous studies [61 – 63].
(§2) Vmax, maximal velocity; VImax, maximal velocity of inhibitor; I, inhibitor; Ki, the inhibitor constant.

[1] = system: gingival carcinoma (Ca9-22) cells; assay: Cytotoxicity assay (MTT), Ca9-22; assay type: cell-based, human; conditions: Homo sapiens, Ca9-22; tumor cell line, 48 h, MTT
Procedure: (§3) The cytotoxicity of the compounds 4a - 4j were assayed towards human tumor cell lines [gingival carcinoma (Ca9–22), oral squamous cell carcinoma (HSC-2)] and human normal oral cells [gingival fibroblasts (HGF), and periodontal ligament fibroblasts (HPLF)] as described [42, 54 – 56]. In brief, all cells were cultured in Dulbecco’s modified eagle’s medium (DMEM) supplemented with 10% fetal bovine serum (FBS). The following concentrations of the compounds in dimethylsulfoxide (DMSO) were added to the medium and incubated at 37 ° C for 48 h: 4a - 4j ([…]), melphalan (3.12, 6.25, 12.5, 25. 50, 100, 200 and […]) and 5-FU ([…]). The media that contained the same concentration of DMSO ([…], 0.03125, 0.0625, 0.125, 0.25, 0.5 or 1%) were used as controls since DMSO above 0.25% is cytotoxic. The viable cell numbers were determined by the 3-(4,5-dimethylthiazol-2-yl)-2,5-diphenyltetrazolium bromide (MTT) assay. The CC50 values were determined from dose-response curves.
(§4) Cytotoxicity’s of the compounds 4a - 4j were evaluated towards Ca9–22, HSC-2, HSC-3, and HSC-4 human oral squamous cell carcinoma cell lines as tumor cell lines and HGF, HPLF, and HPC human normal oral cells as nontumor cells (Table 1) according to the procedure in the literature [42, 54 – 56]. 5-Fluorouracil (5-FU) was used as a reference anticancer drug.

[2] = Cytotoxicity assay, all non-tumor cells (mean); assay type: cell-based; conditions: human, normal oral cells HGF, HPLF and HPC (mean of the three), read-out: Non-tumor cell lines CC50 mean (D)
Procedure: as §3, §4

[3] = Cytotoxicity assay (MTT), HPLF normal cells; assay type: cell-based; conditions: human, HPLF periodontal ligament fibroblasts (normal oral cells), non-tumor cells
Procedure: as §3, §4

[4] = system: human oral squamous cell carcinoma cell lines (Ca9-22, HSC-2, HSC-3, HSC-4); assay: Cytotoxicity assay, all tumor cell lines (mean, TS1, PSE1); assay type: cell-based; conditions: mean of Ca9-22, HSC-2, HSC-3, HSC-4, read-out: Tumor cell lines CC50 mean (B)
Procedure: as §3, §4
The tumor selectivity (TS1 and TS2) of each compound was calculated as described in previously reported literature procedures and these figures are presented in Table 1. Based on the TS1 values, 4f and 4g which have 2,5 and 2,4-dimethoxy substituents had the highest TS1 values in a series with 22.4 and 22.2, respectively. On the other hand, the 3,4,5-trimethoxy substituted compound 4i (TS1: 19.6) had the […] TS1 value. […] As expected, they were in accordance with the literature findings [16 – 18]. The second calculation (TS2) considered the differences of sensitivity between the malignant (Ca9–22) and non-malignant (HGF) cells derived from the same tissue (gingiva). According to TS2 values obtained, 4i (3,4,5-trimethoxy) had the highest TS2 value of 43.
The desired properties for a lead compound are being both markedly cytotoxic and selectively toxic for tumors. PSE1 reflects general cytotoxicity and selectivity potency of the compound towards all cells used, whereas PSE2 seems more specified since it was considered for the same origin cells. When the compounds tested towards OSCC lines were considered in terms of PSE2 values of the compounds. The best poly-methoxylated compounds were 4i (with 3,4,5-trimethoxy, PSE2 = 461.5) ˃ 4f (with 2,5-dimethoxy, PSE2 = 425.1) ˃ 4g (with 2,4-dimethoxy, PSE2 = 405.4) while the best mono-methoxylated derivative was 4b (with 4-methoxy, PSE2 = 205).

[5] = system: HSC-3 oral squamous cell carcinoma cells; assay: Cytotoxicity assay (MTT), HSC-3; assay type: cell-based; conditions: Homo sapiens, tumor cell line, 48 h
Procedure: as §3, §4

[6] = Cytotoxicity assay (MTT), HPC normal cells; assay type: cell-based; conditions: human, HPC normal oral cells, non-tumor cells
Procedure: as §3, §4

hCA II = hCA II (Homo sapiens, UniProt P00918); assay: Carbonic anhydrase enzyme assay (esterase activity), hCA II; assay type: biochemical
From the text: as §1, §2

[7] = Cytotoxicity assay (MTT), HGF normal cells; assay type: cell-based; conditions: human, HGF gingival fibroblasts (normal oral cells), non-tumor cells
Procedure: as §3, §4

[8] = system: oral squamous cell carcinoma (HSC-2) cells; assay: Cytotoxicity assay (MTT), HSC-2; assay type: cell-based, human
Procedure: as §3, §4

[9] = system: HSC-4 oral squamous cell carcinoma cells; assay: Cytotoxicity assay (MTT), HSC-4; assay type: cell-based; conditions: Homo sapiens, tumor cell line, 48 h
Procedure: as §3, §4

[10] = esterase activity, p-nitrophenyl acetate

Chain of hCA I (P00915 whole entry, canonical isoform): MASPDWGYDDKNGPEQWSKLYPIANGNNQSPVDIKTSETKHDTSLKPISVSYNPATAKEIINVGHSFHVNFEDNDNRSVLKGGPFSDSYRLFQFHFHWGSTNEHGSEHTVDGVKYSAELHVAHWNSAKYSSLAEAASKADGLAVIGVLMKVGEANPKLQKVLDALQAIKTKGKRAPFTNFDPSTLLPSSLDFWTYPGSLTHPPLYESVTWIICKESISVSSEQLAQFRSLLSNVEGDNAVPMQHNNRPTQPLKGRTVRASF

Ki (hCA I; Lineweaver-Burk plot): 21.5 ± 1.5 µM
IC50 (hCA I; [10]): 6.6 µM
Ki (hCA II; Lineweaver-Burk plot): 6.9 ± 1.5 µM
IC50 (hCA II; [10]): 9.2 µM
melting point: 184 to 186 °C
SMILES: COc1cccc(C2=NN(c3ccc(S(N)(=O)=O)cc3)C(c3ccc4c(c3)OCO4)C2)c1 (stereo not drawn) [4c, 4-[5-(1,3-Benzodioxol-5-yl)-3-(3-methoxyphenyl)-4,5-dihydro-1H-pyrazol-1-yl]benzenesulphonamide]
CC50 [1]: 19.5 µM
CC50 at 48 h [2]: 119 µM
CC50 at 48 h [3]: 178 µM
CC50 [4]: 17.4 µM
CC50 [5]: 13.9 µM
CC50 at 48 h [6]: 140 µM
CC50 at 48 h [7]: 38.2 µM
CC50 ([8]; Homo sapiens, HSC-2, tumor cell line, 48 h, MTT): 18.3 µM
times of potency compared to 5-FU, HSC-2 ([8]; cytotoxicity relative to 5-FU): 14.3
CC50 [9]: 18 µM
